Results published in ChEMBL document CHEMBL1250486, “Synthesis and evaluation of fatty acyl ester derivatives of cytarabine as anti-leukemia agents” (2010).
Active and inactive are the calls of the source. The calls are words filed in the database; no cut-off is given here.

Assays:
CCRF-CEM [1] = assay: Antiproliferative activity against human CCRF-CEM cells at 1 uM after 24 hrs; type: functional, cell-based
CCRF-CEM [2] = assay: Antiproliferative activity against human CCRF-CEM cells at 1 uM after 96 hrs; type: functional

| Compound | Activity (CCRF-CEM [1]) | Activity (CCRF-CEM [2]) |
| --- | --- | --- |
| CCSCCCCCCCCCCCC(=O)O[C@H]1[C@H](O)[C@@H](CO)O[C@H]1n1ccc(N)nc1=O | Active | 36% |
| CCCCCCCCCCCCCC(=O)O[C@H]1[C@H](O)[C@@H](CO)O[C@H]1n1ccc(N)nc1=O | Active | 36% |
| CCCCCCCCCCCCCC(=O)OC[C@H]1O[C@@H](n2ccc(N)nc2=O)[C@@H](OC(=O)CCCCCCCCCCCCC)[C@@H]1O | Active | 76% |
| CCSCCCCCCCCCCCC(=O)OC[C@H]1O[C@@H](n2ccc(N)nc2=O)[C@@H](O)[C@@H]1O | – | inactive |
| CCCCCCCCCCCCCC(=O)OC[C@H]1O[C@@H](n2ccc(N)nc2=O)[C@@H](O)[C@@H]1O | – | inactive |
